Measured values as given in patent US10414797B2, “Gelatinase inhibitors and use thereof” (Iproteos S.L, priority 2015, dated 2019).

Target: MMP-9 (Homo sapiens, UniProt P14780)
Test: MMP-9 inhibition assay (fluorimetric, DQ gelatin substrate)
Assay type: biochemical
Conditions: recombinant MMP-9 (Merck-Millipore for examples 1 to 9 and comparative examples; Enzo for examples 10 to 16), DQ gelatin 50 μg/mL, 4 hours at room temperature, pH 7.6
Procedure: All the experiments were done in 1× reaction buffer, which was obtained from a 10× reaction buffer solution. The content of the 10× reaction buffer was: 50 mL of 0.5 M Tris-HCl, 1.5 M NaCl, 50 mM CaCl2 and 2 mM sodium azide at pH 7.6. To obtain the 1× reaction buffer 4 mL of the 10× reaction buffer were diluted in 36 mL of H2O.
Recombinant MMP-9 expressed was obtained from Merck-Millipore (catalog number PF140-5UG, used in examples 1 to 9 and comparative examples) and Enzo (catalog number-SE360-0010, used in examples 10 to 16). DQ gelatin from pig skin fluorescein conjugated (MMP-9 substrate) was obtained from Life Technologies (catalog number E12055).
Preparation of the MMP-9 for the activity assay: MMP-9 was provided as a stock solution (0.1 mg/mL). The enzyme was diluted in 1× reaction buffer to a final concentration of 5 μg/mL.
Preparation of the DQ gelatin (substrate) solution for the activity assay: the solid form of the substrate was dissolved in water in order to obtain a stock solution of 1 mg/mL.
Procedure: The enzymatic assays were performed in 96-well microtiter plate, which allowed simultaneous monitoring of multiple reactions. For each reaction, 84.6 μL of 1× reaction buffer (pH 7.6), […] of MMP-9 (final concentration 85 ng/mL) and 2 μL of the corresponding new compound were added to each well. A stock solution of new compound was prepared in DMSO (100 mM), and dilutions were prepared from this stock solution with DMSO. Finally, to the mixture contained in each well 10 μL of the substrate were added (final concentration 50 μg/mL). The reaction was incubated for 4 hours at room temperature in an orbital shaker (100 rpm).
The inhibitory activity of the new compound was measured fluorimetrically. The excitation and emission wavelengths were 483 and 525 nm, respectively.
Inhibitory activity at several concentration points (ranging from 100 pM to 200 μM MMP) were measured for each compound. The inhibitory activity on MMP-2 and MMP-9 was calculated according to eq 1. For each new compound, the fluorescence in the presence (a) and in the absence (b) of the corresponding MMP was measured. The maximum fluorescence (0% inhibitory activity) was obtained from a sample of the corresponding MMP in the absence of inhibitory compounds. To estimate the inhibitory potency of the novel compounds, activities were plotted against the log concentration of the compound, adjusting to a sigmoid curve using GraphPad Prism software, and the IC50 value, defined as the concentration of compound required to inhibit 50% of the corresponding MMP activity, was determined from resulting curve.
a corresponds to fluorescence intensity in the presence of substrate+test compound+MMP
b corresponds to the fluorescence intensity in the presence of substrate+tested compound
c corresponds to the fluorescence intensity in the presence of substrate+MMP
d corresponds to the fluorescence intensity of the presence of substrate

MMP-9, sequence (P14780 107-707 limits assumed): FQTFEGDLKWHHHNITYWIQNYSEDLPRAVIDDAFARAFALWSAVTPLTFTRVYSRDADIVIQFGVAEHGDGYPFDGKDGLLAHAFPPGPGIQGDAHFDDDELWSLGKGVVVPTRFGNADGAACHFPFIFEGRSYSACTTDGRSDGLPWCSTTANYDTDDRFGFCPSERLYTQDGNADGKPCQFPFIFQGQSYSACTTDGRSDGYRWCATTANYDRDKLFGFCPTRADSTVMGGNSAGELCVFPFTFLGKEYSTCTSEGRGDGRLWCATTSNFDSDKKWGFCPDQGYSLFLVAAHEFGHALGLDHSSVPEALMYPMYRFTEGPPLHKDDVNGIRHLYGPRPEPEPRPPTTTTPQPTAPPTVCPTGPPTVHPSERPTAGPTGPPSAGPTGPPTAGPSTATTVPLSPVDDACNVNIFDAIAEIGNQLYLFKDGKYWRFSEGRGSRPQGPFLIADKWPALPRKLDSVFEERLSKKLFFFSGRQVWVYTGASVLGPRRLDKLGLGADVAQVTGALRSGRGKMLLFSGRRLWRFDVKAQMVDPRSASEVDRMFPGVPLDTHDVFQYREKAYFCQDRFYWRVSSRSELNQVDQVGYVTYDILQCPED

IC50: 263 nM
SMILES: CCCC(CCC)C(=O)N1CCC[C@H]1C(=O)N(C)[C@H](C(=O)N[C@@H](CCNC(=O)c1cc(F)cc(F)c1)C(=O)NO)C(C)CC (stereo partly drawn) [Example 8, (2S)—N-[(1S)-1-[[(1S)-3-[(3,5-difluorobenzoyl)amino]-1-(hydroxycarbamoyl)propyl]carbamoyl]-2-methyl-butyl]-N-methyl-1-(2-propylpentanoyl)pyrrolidine-2-carboxamide]
